Structures can show the parent of a compound that is named as a salt.
Assays:
β-receptor (trachea) = target: T1, β-receptor (trachea) (Cavia porcellus, UniProt Q8K4Z4); assay: Cardio selectivity of β-receptor blocking effect in vitro: isolated trachea, isoproterenol concentration-response; assay type: cell-based, guinea pig; settings: against isoproterenol (10^-10 M to 10^-4 M), read-out: pA2 value trachea (converted)
T1 construct: Trachea was cut into zigzag strip and connected to a force transducer; from tissue; host or cells: isolated guinea pig tracheal zigzag strip
T1 sequence (Q8K4Z4 whole entry): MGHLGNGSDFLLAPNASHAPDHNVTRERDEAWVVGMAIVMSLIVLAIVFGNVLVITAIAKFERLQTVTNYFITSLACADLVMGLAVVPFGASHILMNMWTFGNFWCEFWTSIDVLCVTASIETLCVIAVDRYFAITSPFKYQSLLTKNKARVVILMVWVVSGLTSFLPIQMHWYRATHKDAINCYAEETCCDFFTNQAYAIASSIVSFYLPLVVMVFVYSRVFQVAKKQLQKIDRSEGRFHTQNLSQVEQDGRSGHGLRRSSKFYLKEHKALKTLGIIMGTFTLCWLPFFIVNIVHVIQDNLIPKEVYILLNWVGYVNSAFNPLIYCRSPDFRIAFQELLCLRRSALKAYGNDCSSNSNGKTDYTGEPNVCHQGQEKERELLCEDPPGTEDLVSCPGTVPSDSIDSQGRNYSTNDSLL
From the text: Concentration-response curves to isoproterenol were then obtained.

[1] = acute toxicity (LD50), intravenous, mice; settings: mouse, in vivo; intravenous administration in mice
From the text: On the other hand, it was confirmed that the toxicity of the compounds of the present invention was very low. […] Therefore, the compounds of the present invention may be considered to be sufficiently safe and suitable for pharmaceutical use.

β1 -receptor = assay: β-blocking activity in vivo: inhibition of isoproterenol-induced tachycardia in anesthetized dogs; settings: for Inhibitory effect after administration of compounds of the present invention (inhibition of isoproterenol-induced tachycardia), 10 min: 10 min (during infusion); for Inhibitory effect after administration of compounds of the present invention (inhibition of isoproterenol-induced tachycardia), 10 min / Inhibitory effect after administration of compounds of the present invention (inhibition of isoproterenol-induced tachycardia), 20 min / Inhibitory effect after administration of compounds of the present invention (inhibition of isoproterenol-induced tachycardia), 30 min / Inhibitory effect after administration of compounds of the present invention (inhibition of isoproterenol-induced tachycardia), 35 min / Inhibitory effect after administration of compounds of the present invention (inhibition of isoproterenol-induced tachycardia), 40 min / Inhibitory effect after administration of compounds of the present invention (inhibition of isoproterenol-induced tachycardia), 50 min / Inhibitory effect after administration of compounds of the present invention (inhibition of isoproterenol-induced tachycardia), 60 min: 10 μg/kg/min iv infusion for 30 minutes; for Inhibitory effect after administration of compounds of the present invention (inhibition of isoproterenol-induced tachycardia), 20 min: 20 min (during infusion); for Inhibitory effect after administration of compounds of the present invention (inhibition of isoproterenol-induced tachycardia), 30 min: 30 min (end of infusion); for Inhibitory effect after administration of compounds of the present invention (inhibition of isoproterenol-induced tachycardia), 35 min: 35 min (after infusion); for Inhibitory effect after administration of compounds of the present invention (inhibition of isoproterenol-induced tachycardia), 40 min: 40 min (after infusion); for Inhibitory effect after administration of compounds of the present invention (inhibition of isoproterenol-induced tachycardia), 50 min: 50 min (after infusion); for Inhibitory effect after administration of compounds of the present invention (inhibition of isoproterenol-induced tachycardia), 60 min: 60 min (after infusion); for Duration of action: time required to decrease the inhibition percent 30 minutes after administration to half, 10 μg/kg/min iv infusion
Procedure: β-blocking activity of the compounds of the present invention in vivo
Dogs were anesthetized with sodium barbital (300 mg/kg, ip). A femoral artery and both femoral veins were cannulated. Blood pressure was measured with a pressure transducer. Heart rate was measured from the blood pressure signal using a cardiotachometer. The β-blocking activity was assessed by the inhibition of isoproterenol-induced tachycardia. Isoproterenol was administered intravenously (0.1~0.3 μg/kg) at 10 minutes intervals. When a regular tachycardia induced by isoproterenol was given, the compound of the present invention was administered (10 μg/kg/min, iv infusion) for 30 minutes. Isoproterenol was given repeatedly during and following infusion of a test compound. The inhibitory effects of the compounds of the present invention on tachycardia were calculated.
Inhibition (%)=((ΔRO-ΔRa)/ΔRO)×100
ΔRO: the increment of heart rate by isoproterenol before infusion of the compound of the present invention
ΔRa: the increment of heart rate by isoproterenol during and after infusion of the compound of the present invention

SMILES	Kb (β-receptor (trachea))	LD50 [1]	Inhibitory effect after administration of compounds of the present invention (inhibition of isoproterenol-induced tachycardia), 10 min (β1 -receptor)	Inhibitory effect after administration of compounds of the present invention (inhibition of isoproterenol-induced tachycardia), 20 min (β1 -receptor)	Inhibitory effect after administration of compounds of the present invention (inhibition of isoproterenol-induced tachycardia), 30 min (β1 -receptor)	Inhibitory effect after administration of compounds of the present invention (inhibition of isoproterenol-induced tachycardia), 35 min (β1 -receptor)	Inhibitory effect after administration of compounds of the present invention (inhibition of isoproterenol-induced tachycardia), 40 min (β1 -receptor)	Inhibitory effect after administration of compounds of the present invention (inhibition of isoproterenol-induced tachycardia), 50 min (β1 -receptor)	Inhibitory effect after administration of compounds of the present invention (inhibition of isoproterenol-induced tachycardia), 60 min (β1 -receptor)	Duration of action (β1 -receptor)
CC1(C)OC[C@@H](COC(=O)CCc2ccc(OC[C@@H](O)CNCCNC(=O)N3CCOCC3)cc2)O1 [2 (b), (2,2-dimethyl-1,3-dioxolan-4S-yl)methyl 3-[4-[2S-hydroxy-3-(2-morpholinocarbonylaminoethyl)aminopropoxy]phenyl]propionate 1/2 oxalate]	66.1 µM	290 mg/kg	–	–	–	–	–	–	–	–
O=C(CCc1ccc(OCC(O)CNCCNC(=O)N2CCOCC2)cc1)OCC1COC2(CCCC2)O1 (stereo not shown) [3 (c), (1,4-dioxaspiro[4,4]-nonan-2-yl)methyl 3-[4-[2-hydroxy-3-(2-morpholinocarbonylaminoethyl)aminopropoxy]phenyl]-ropionate 1/2 oxalate]	–	–	38.3%	46.9%	40.4%	37.0%	20.1%	-2.6%	-1.3%	10 min
CC1(C)OCC(COC(=O)CCc2ccc(OC[C@@H](O)CNCCNC(=O)N3CCOCC3)c(F)c2)O1 (stereo partly drawn) [3 (e), (2,2-dimethyl-1,3-dioxolan-4-yl)methyl 3-[3-fluoro-4-[2S-hydroxy-3-(2-morpholinocarbonylaminoethyl)aminopropoxy]phenyl]propionate 1/2 oxalate]	–	–	49.6%	58.5%	63.8%	45.4%	32.7%	10.8%	-3.3%	10 min
CC1(C)OCC(COC(=O)CCc2ccc(OC[C@@H](O)CNCCNC(=O)N3CCOCC3)c(C#N)c2)O1 (stereo partly drawn) [3 (j), (2,2-dimethyl-1,3-dioxolan-4-yl)methyl 3-[3-cyano-4-[2S-hydroxy-3-(2-morpholinocarbonylaminoethyl)aminopropoxy]phenyl]propionate 1/2 oxalate]	–	–	75.7%	69.0%	68.7%	48.9%	38.3%	19.3%	13.6%	12 min
CN1CCN(C(=O)NCCNC[C@H](O)COc2ccc(CCC(=O)OCC3COC(C)(C)O3)cc2)CC1 (stereo partly drawn) [3 (l), (2,2-dimethyl-1,3-dioxolan-4-yl)methyl 3-[4-[2S-hydroxy-3-[2-(4-methylpiperazin-1-yl)carbonylaminoethyl]aminopropoxy]phenyl]propionate 1/2 oxalate]	–	–	60.2%	58.6%	59.8%	55.6%	41.8%	19.6%	16.3%	15 min

From US5013734A, “Novel esters of phenylalkanoic acid” (Ono Pharmaceutical Co., Ltd., priority 1989, dated 1991)
